Assay results taken from patent US20180353483A1, “PHARMACEUTICAL COMPOSITIONS AND METHODS FOR INDOLEAMINE, 2, 3-DIOXYGENASE INHIBITION AND INDICATIONS THEREFOR” (Incyte Corporation, priority 2015, published 2018).
Read-outs that look alike come from different tables or passages of the source.

Assay: Pharmacokinetics of Compound 1 in combination with MK-3475 in subjects with various cancers
Format: in vivo, human
Conditions: human, plasma, oral; for tmax: read-out: tmax; for concentration at 8 day (cycle 1): read-out: Cmin
Experimental: The subjects were not limited to a specific cancers and study include subjects with various cancers. […] One treatment cycle consisted of 21 days. […] Additional subjects were enrolled in a cohort to achieve the minimum of 3 evaluable subjects if dropouts or dose interruptions or reductions occur that result in a subject being non-evaluable for DLTs. […] An additional safety cohort was opened at 100 mg BID in parallel to 300 mg BID being tested. This may also be limited to subjects with melanoma, NSCLC, or specific cancer types from among those included in Phase 1. The RP2D was selected from the evaluated safety expansions.
If a dose was missed by more than 4 hours, that dose was skipped and was resumed at the scheduled time.
Pharmacokinetic samples were obtained at the visits of Cycle 1 Day 1, Cycle 1 Day 8 and Cycle 2 Day 1. […] The exact date and time of the PK blood draws were recorded in the eCRF along with the date and time of the last dose of study drug and details of the last meal preceding the blood draw.
The planned PK time points were used for preliminary PK analyses.

[1] = 100 mg BID, Diagnosis DLBCL, steady state C1D8, individual values of 2 subjects
[2] = 100 mg BID, Diagnosis GU, steady state C1D8, mean ± SD
[3] = 100 mg BID, Diagnosis NSCLC PD-L1 High, steady state C1D8, mean ± SD

Work on `NS(=O)(=O)NCCNc1nonc1C(=NO)Nc1ccc(F)c(Br)c1` [Compound 1, 4-({2-[(aminosulfonyl)amino]ethyl}amino)-N-(3-bromo-4-fluorophenyl)-N′-hydroxy-1,2,5-oxadiazole-3-carboximidamide] yielded an AUC(0-t) (100 mg BID, All diagnoses, steady state C1D8, geometric mean, read-out: AUC0-12 h (converted)) of 4.26 µM·h, a Cmax (100 mg BID, All diagnoses, steady state C1D8, mean ± SD) of 1100 ± 467 nM and an AUC(0-t) (100 mg BID, All diagnoses, steady state C1D8, mean ± SD, read-out: AUC0-12 h (converted)) of 4.62 ± 2.14 µM·h. For the same molecule, the Cmax [1] was 883 nM, the AUC(0-t) (100 mg BID, Diagnosis DLBCL, steady state C1D8, individual values of 2 subjects, read-out: AUC0-12 h (converted)) was 5.32 µM·h and the tmax [1] was 4 h. The Cmax (100 mg BID, Diagnosis GU, steady state C1D8, geometric mean) was 1030 nM, the AUC(0-t) (100 mg BID, Diagnosis GU, steady state C1D8, geometric mean, read-out: AUC0-12 h (converted)) was 4.41 µM·h and the Cmax [2] was 1100 ± 400 nM. It also gave an AUC(0-t) (100 mg BID, Diagnosis GU, steady state C1D8, mean ± SD, read-out: AUC0-12 h (converted)) of 4.98 ± 3.01 µM·h, a concentration at 8 day (cycle 1) [2] of 154 ± 203 nM and a Cmax (100 mg BID, Diagnosis MEL, steady state C1D8, geometric mean) of 945 nM. For the same molecule, the AUC(0-t) (100 mg BID, Diagnosis MEL, steady state C1D8, geometric mean, read-out: AUC0-12 h (converted)) was 3.57 µM·h, the Cmax (100 mg BID, Diagnosis MEL, steady state C1D8, mean ± SD) was 1000 ± 347 nM and the AUC(0-t) (100 mg BID, Diagnosis MEL, steady state C1D8, mean ± SD, read-out: AUC0-12 h (converted)) was 3.68 ± 0.852 µM·h. For the same molecule, the AUC(0-t) (100 mg BID, Diagnosis NSCLC PD-L1 High, steady state C1D8, geometric mean, read-out: AUC0-12 h (converted)) was 4.15 µM·h, the Cmax [3] was 939 ± 549 nM and the AUC(0-t) (100 mg BID, Diagnosis NSCLC PD-L1 High, steady state C1D8, mean ± SD, read-out: AUC0-12 h (converted)) was 4.43 ± 1.81 µM·h. The concentration at 8 day (cycle 1) [3] was 159 ± 77.7 nM, the tmax (100 mg BID, Diagnosis NSCLC PD-L1 High, steady state C1D8, median) was 3 h and the Cmax (100 mg BID, Diagnosis NSCLC PD-L1 Low/NE, steady state C1D8, geometric mean) was 867 nM. For the same molecule, the AUC(0-t) (100 mg BID, Diagnosis NSCLC PD-L1 Low/NE, steady state C1D8, geometric mean, read-out: AUC0-12 h (converted)) was 4.3 µM·h, the Cmax (100 mg BID, Diagnosis NSCLC PD-L1 Low/NE, steady state C1D8, mean ± SD) was 879 ± 156 nM and the AUC(0-t) (100 mg BID, Diagnosis NSCLC PD-L1 Low/NE, steady state C1D8, mean ± SD, read-out: AUC0-12 h (converted)) was 4.35 ± 0.828 µM·h. The Cmax (100 mg BID, Diagnosis OC, steady state C1D8, geometric mean) was 1110 nM, the AUC(0-t) (100 mg BID, Diagnosis OC, steady state C1D8, geometric mean, read-out: AUC0-12 h (converted)) was 4.34 µM·h and the Cmax (100 mg BID, Diagnosis OC, steady state C1D8, mean ± SD) was 1200 ± 487 nM. It also gave an AUC(0-t) (100 mg BID, Diagnosis OC, steady state C1D8, mean ± SD, read-out: AUC0-12 h (converted)) of 4.66 ± 2.11 µM·h, a Cmax (100 mg BID, Diagnosis SCCHN, steady state C1D8, geometric mean) of 821 nM and an AUC(0-t) (100 mg BID, Diagnosis SCCHN, steady state C1D8, geometric mean, read-out: AUC0-12 h (converted)) of 3.81 µM·h. For the same molecule, the Cmax (100 mg BID, Diagnosis SCCHN, steady state C1D8, mean ± SD) was 987 ± 612 nM, the AUC(0-t) (100 mg BID, Diagnosis SCCHN, steady state C1D8, mean ± SD, read-out: AUC0-12 h (converted)) was 4.29 ± 2.3 µM·h and the Cmax (100 mg BID, Diagnosis TNBC, steady state C1D8, geometric mean) was 1150 nM. For the same molecule, the AUC(0-t) (100 mg BID, Diagnosis TNBC, steady state C1D8, geometric mean, read-out: AUC0-12 h (converted)) was 4.69 µM·h, the Cmax (100 mg BID, Diagnosis TNBC, steady state C1D8, mean ± SD) was 1210 ± 433 nM and the AUC(0-t) (100 mg BID, Diagnosis TNBC, steady state C1D8, mean ± SD, read-out: AUC0-12 h (converted)) was 5.01 ± 2.09 µM·h. The Cmax (100 mg BID, Dose Reduction By C4D1 subjects (Table 13), steady state C1D8, geometric mean) was 953 nM, the AUC(0-t) (100 mg BID, Dose Reduction By C4D1 subjects (Table 13), steady state C1D8, geometric mean, read-out: AUC0-12 h (converted)) was 4.42 µM·h and the Cmax (100 mg BID, Dose Reduction By C4D1 subjects (Table 13), steady state C1D8, mean ± SD) was 1040 ± 551 nM. For the same molecule, the AUC(0-t) (100 mg BID, Dose Reduction By C4D1 subjects (Table 13), steady state C1D8, mean ± SD, read-out: AUC0-12 h (converted)) was 5.1 ± 3.59 µM·h, the Cmax (100 mg, All diagnoses, first dose, geometric mean) was 830 nM and the AUC(0-t) (100 mg, All diagnoses, first dose, geometric mean, read-out: AUC0-t) was 2.63 µM·h. It also gave a Cmax (100 mg, All diagnoses, first dose, mean ± SD) of 937 ± 469 nM, an AUC(0-t) (100 mg, All diagnoses, first dose, mean ± SD, read-out: AUC0-t) of 2.87 ± 1.19 µM·h and an AUC(0-t) (100 mg, Cohort 3, 100 mg BID, steady state C1D8, geometric mean, read-out: AUC0-12 h (converted)) of 3.67 µM·h. It also gave a Cmax (100 mg, Cohort 3, 100 mg BID, steady state C1D8, mean ± SD) of 956 ± 497 nM, an AUC(0-t) (100 mg, Cohort 3, 100 mg BID, steady state C1D8, mean ± SD, read-out: AUC0-12 h (converted)) of 3.91 ± 1.35 µM·h and a Cmax (100 mg, Cohort 3, 100 mg, first dose, geometric mean) of 521 nM. For the same molecule, the AUC(0-t) (100 mg, Cohort 3, 100 mg, first dose, geometric mean, read-out: AUC0-t) was 1.89 µM·h, the Cmax (100 mg, Cohort 3, 100 mg, first dose, mean ± SD) was 632 ± 508 nM and the AUC(0-t) (100 mg, Cohort 3, 100 mg, first dose, mean ± SD, read-out: AUC0-t) was 2.09 ± 1.15 µM·h. It also gave a tmax (100 mg, Cohort 3, 100 mg, first dose, median) of 4 h, an AUC(0-t) (100 mg, Cohort 5, 100 mg BID, steady state C1D8, geometric mean, read-out: AUC0-12 h (converted)) of 3.53 µM·h and a Cmax (100 mg, Cohort 5, 100 mg BID, steady state C1D8, mean ± SD) of 905 ± 421 nM. The AUC(0-t) (100 mg, Cohort 5, 100 mg BID, steady state C1D8, mean ± SD, read-out: AUC0-12 h (converted)) was 3.79 ± 1.43 µM·h, the Cmax (100 mg, Cohort 5, 100 mg, first dose, geometric mean) was 787 nM and the AUC(0-t) (100 mg, Cohort 5, 100 mg, first dose, geometric mean, read-out: AUC0-t) was 2.46 µM·h. The Cmax (100 mg, Cohort 5, 100 mg, first dose, mean ± SD) was 852 ± 340 nM, the AUC(0-t) (100 mg, Cohort 5, 100 mg, first dose, mean ± SD, read-out: AUC0-t) was 2.58 ± 0.778 µM·h and the tmax (100 mg, Cohort 5, 100 mg, first dose, median) was 1.5 h. For the same molecule, the Cmax (100 mg, Diagnosis DLBCL, first dose, geometric mean) was 664 nM.
